These results are taken from patent publication US10568854B2, “Compositions and methods for treating kabuki syndrome and related disorders” (THE JOHNS HOPKINS UNIVERSITY, priority 2014, dated 2020).

“Also recorded” adds a separate entry of the source.

One test deals with H3K4me3 in the GCL. Briefly: Immunofluorescence of H3K4me3 in dentate gyrus GCL (AR-42 treated mice). It counts as in vivo, mouse. From the text:
(§1) Animals: Kmt2d^+/βGeo mice, also named Mll2Gt^(RRt024)Byg, were acquired from Bay Genomics (University of California). All experimental mice were on a mixed C57BL/6J and 129/SvEv background. Expected Mendelian ratios were observed when heterozygous animals were bred to wild-type. In heterozygous crosses, however, there was uniform embryonic lethality of homozygotes by ED12, the earliest developmental stage assayed. For treatment with AR-42 mice were orally gavaged daily with drug (Selleck Chemicals, Houston, Tex.) solubilized in vehicle (0.5% methylcellulose, 0.1% Tween-80, water) or with vehicle alone. Drug delivery information was kindly provided by Drs. […] For quantification of DCX positive cells, doses of 0, 5, 10 and 25 mg/kg/day were used. […] Maxillary protrusion was evaluated by ten investigators blinded to genotype and they were asked to rate maxillary protrusion on radiographs as either large (2) or small (1). […]
Confocal microscopy: Z-stack images of slides were taken at either 10× using Zeiss Axiovert 200 with 510-Meta confocal module (Carl Zeiss, Jena, GER) or 25× using Zeiss AxioExaminer with 710NLO-Meta multiphoton (Carl Zeiss, Jena, GER). From 10× pictures, the GCL was highlighted and fluorescent intensities for both DAPI and H3K4me3 were measured at the midpoint of the entire z-stack (Zen software, Carl Zeiss, Jena, GER) with the value for Kmt2d^+/+ animals set equal to one. […]

The test system of test [1] is Kmt2d^+/βGeo mice (mouse model of Kabuki syndrome). Briefly: Morris water maze (Example 1). It counts as in vivo. Particulars: 10 mg/kg/day.
Text: as §1
Morris water maze: Mice were placed in a 1.1 meter diameter tank filled with room temperature water dyed with non-toxic white paint. […] Latency to reach the platform was measured during each trial. […] Average number of crossings of the platform's previous location was recorded. […] For all training and probe testing, data was recorded both manually and electronically with ANY-maze software (San Diego Instruments, San Diego, Calif.) when applicable. […]

Consider `CC(C)[C@H](C(=O)Nc1ccc(C(=O)NO)cc1)c1ccccc1` [AR-42, (S)—N-hydroxy-4-(3-methyl-2-phenylbutanamido)benzamide], for which the “H3K4me3 in the GCL” value in the test on H3K4me3 in the GCL (25 mg/kg/day, oral gavage, two weeks) is listed as “increased H3K4 trimethylation; also recorded: increased H3K4me3”; in the test with H3K4me3 in the GCL (5 and 10 mg/kg/day, both genotypes), “dose-dependent increase in H3K4me3”. For the same molecule, in test [1], the “frequency of platform crossing during probe trial” value was “improved performance for both genotypes; also recorded: normalized”. Further, the “escape latency during training, with versus without drug” value in test [1] (Kmt2d^+/βGeo animals) was “No significant difference is observed”.
